Source: patent US5567692A, “9-[(substituted glycyl) amido)]-6-demethyl-6-deoxytetracyclines” (priority 1995, dated 1996)
Where a name gives a salt, the structure may show the parent alone. Read-outs that look alike come from different tables or passages of the source.

Key:
Type in all cases: cell-based
S. aureus UBMS 90-3 = assay: MIC, agar dilution; details: Staphylococcus aureus, UBMS903, 18 h
Enterococcus 12201 = assay: MIC, agar dilution; details: Enterococcus, 12201, 18 h
[1] = tested on: S. aureus UBMS 88-5 Tet M; assay: microbe, parasite or virus in culture; details: Staphylococcus aureus, UBMS885TETM, 18 h
S. aureus SMITH (MP) = assay: MIC, agar dilution; details: Staphylococcus aureus, 18 h
E. coli UBMS 90-4 Tet M = assay: microbe, parasite or virus in culture; details: Escherichia coli, UBMS904TETM, 18 h
[2] = tested on: S. aureus UBMS 90-2 Tet M; assay: microbe, parasite or virus in culture; details: Staphylococcus aureus, UBMS902TETM, 18 h
[3] = tested on: E. coli MC 4100 Tet sens.; assay: MIC, agar dilution; details: Escherichia coli, 18 h
S. aureus ROSE (MP) = assay: MIC, agar dilution; details: Staphylococcus aureus, 18 h
[4] = tested on: S. hemolyticus AVHAH 88-3; assay: MIC, agar dilution; details: Streptococcus pyogenes, AVHAH883, 18 h
[5] = tested on: E. coli UBMS 89-2 Tet sens.; assay: MIC, agar dilution; details: Escherichia coli, 18 h
[6] = tested on: E. coli MC 4100 TNIOC Tet B; assay: microbe, parasite or virus in culture; details: Escherichia coli, 18 h
[7] = tested on: S. aureus UBMS 90-1 Tet M; assay: microbe, parasite or virus in culture; details: Staphylococcus aureus, UBMS901TETM, 18 h
E. coli UBMS 90-5 = assay: microbe, parasite or virus in culture; details: Escherichia coli, UBMS905, 18 h, E. coli UBMS 90-5; read-out: MIC
E. coli UBMS 89-1 Tet M = assay: microbe, parasite or virus in culture; details: Escherichia coli, UBMS891TETM, 18 h
[8] = tested on: S. aureus UBMS 88-7 Tet K; assay: microbe, parasite or virus in culture; details: Staphylococcus aureus, UBMS887TETK, 18 h
S. aureus IVES 2943 = assay: MIC, agar dilution; details: Staphylococcus aureus, IVES2943, 18 h
E. coli J2175 = assay: MIC, agar dilution; details: Escherichia coli, 18 h, read-out: MIC
E. coli #311 (MP) = assay: MIC, agar dilution; details: Escherichia coli, 18 h
S. marcescens FPOR 8733 = assay: MIC, agar dilution; details: Serratia marcescens, FPOR8733, 18 h
E. coli J3272 Tet D = assay: microbe, parasite or virus in culture; details: Escherichia coli, J3272TETD, 18 h
S. aureus NEMC 8769 = assay: MIC, agar dilution; details: Staphylococcus aureus, NEMC8769, 18 h
E. coli J3272 Tet C = assay: microbe, parasite or virus in culture; details: Escherichia coli, J3272TETC, 18 h
E. coli UBMS 88-1 Tet B = assay: microbe, parasite or virus in culture; details: Escherichia coli, UBMS881TETB, 18 h
E. coli ATCC 25922 = assay: MIC, agar dilution; details: Escherichia coli, ATCC25922, 18 h
S. aureus ATCC 29213 = assay: MIC, agar dilution; details: Staphylococcus aureus, ATCC29213, 18 h, S. aureus ATCC 29213
E. faecalis ATCC 29212 = assay: MIC, agar dilution; details: Enterococcus faecalis, ATCC29212, 18 h
S. aureus UBMS 88-4 = assay: MIC, agar dilution; details: Staphylococcus aureus, UBMS884, 18 h
E. coli BAJ9003 IMP MUT = assay: microbe, parasite or virus in culture; details: Escherichia coli, BAJ9003IMPMUT, 18 h
S. aureus IVES 1983 = assay: MIC, agar dilution; details: Staphylococcus aureus, IVES1983, 18 h
[9] = tested on: Ps. aeruginosa ATCC 27853; assay: MIC, agar dilution; details: Pseudomonas aeruginosa, ATCC27853, 18 h
[10] = tested on: X. maltophilia NEMC 87210; assay: MIC, agar dilution; details: Stenotrophomonas maltophilia, NEMC87210, 18 h
E. coli PRP1 Tet A = assay: microbe, parasite or virus in culture; details: Escherichia coli, PRP1TETA, 18 h
[11] = Enterococcus 12201, read-out: MIC
[12] = S. aureus SMITH (MP), read-out: MIC
[13] = S. hemolyticus AVHAH 88-3, read-out: MIC
[14] = E. faecalis ATCC 29212, read-out: MIC
[15] = Ps. aeruginosa ATCC 27853, read-out: MIC

Measured: MIC

CCNCC(=O)Nc1ccc2c(c1O)C(=O)C1=C(O)[C@]3(O)C(=O)C(C(N)=O)=C(O)[C@@H](N(C)C)C3CC1C2 (stereo partly drawn) [E, [4S-(4alpha,12aalpha)]-4-(Dimethylamino)-9-[[(ethylamino)acetyl]amino]-1,4,4a,5,5a,6,11,12a-octahydro-3,10,12,12a-tetrahydroxy-1,11-dioxo-2-naphthacenecarboxamide dihydrochloride]
8 µg/mL: [8] | S. aureus IVES 1983 | [10]
0.5 µg/mL: [1] | [5] | [7] | E. coli UBMS 90-5 | E. coli J2175 | E. coli #311 (MP) | E. coli UBMS 88-1 Tet B | S. aureus ATCC 29213 | S. aureus UBMS 88-4
0.12 µg/mL: S. aureus UBMS 90-3; S. aureus UBMS 90-3 | [2]; S. aureus UBMS 90-2 Tet M | S. aureus NEMC 8769 | E. coli BAJ9003 IMP MUT
2 µg/mL: E. coli PRP1 Tet A
> 32 µg/mL: S. aureus ROSE (MP)
0.25 µg/mL: Enterococcus 12201; [11] | S. aureus SMITH (MP); [12] | E. coli UBMS 90-4 Tet M | [3] | E. coli UBMS 89-1 Tet M | E. coli J3272 Tet D | E. coli ATCC 25922; read-out: MIC | E. faecalis ATCC 29212
16 µg/mL: S. aureus IVES 2943 | [9]
1 µg/mL: [4] | [6] | E. coli J3272 Tet C
4 µg/mL: S. marcescens FPOR 8733; read-out: MIC

CN(C)CC(=O)Nc1ccc2c(c1O)C(=O)C1=C(O)[C@]3(O)C(=O)C(C(=O)NCN4CCCC4)=C(O)[C@@H](N(C)C)C3CC1C2 (stereo partly drawn) [EE, [4S-(4alpha,12aalpha)]-4-(Dimethylamino)-9-[[(dimethylamino)acetyl]amino]-1,4,4a,5,5a,6,11,12a-octahydro-3,10,12,12a-tetrahydroxy-1,11-dioxo-N-(l-pyrrolidinylmethyl)-2-naphthacenecarboxamide]
0.12 µg/mL: S. aureus UBMS 90-3; S. aureus UBMS 90-3 | [3] | E. faecalis ATCC 29212; [14] | E. coli BAJ9003 IMP MUT
4 µg/mL: S. marcescens FPOR 8733; read-out: MIC
2 µg/mL: S. aureus IVES 2943 | S. aureus IVES 1983 | [10]; X. maltophilia NEMC 87210, read-out: MIC | E. coli PRP1 Tet A
1 µg/mL: [8] | E. coli J3272 Tet C
0.5 µg/mL: [4]; [13] | [5] | [6] | E. coli J2175 | E. coli #311 (MP) | E. coli UBMS 88-1 Tet B
16 µg/mL: [9]; [15]
0.25 µg/mL: Enterococcus 12201; [11] | [1] | S. aureus SMITH (MP); [12] | E. coli UBMS 90-4 Tet M | [2] | [7] | E. coli UBMS 90-5 | E. coli UBMS 89-1 Tet M | E. coli J3272 Tet D | S. aureus NEMC 8769; read-out: MIC | E. coli ATCC 25922 | S. aureus ATCC 29213; read-out: MIC | S. aureus UBMS 88-4
8 µg/mL: S. aureus ROSE (MP)

CN(C)[C@@H]1C(O)=C(C(N)=O)C(=O)[C@@]2(O)C(O)=C3C(=O)c4c(ccc(NC(=O)CN5CCCCC5)c4O)CC3CC12 (stereo partly drawn) [I, [7S-(7alpha,10aalpha)]-N-9-(Aminocarbonyl)-7-(dimethylamino)-5,5a,6,6a,7,10,10a,12-octahydro-1,8,10a,11-tetrahydroxy-10,12-dioxo-1-piperidineacetamide dihydrochloride]
1 µg/mL: [6] | S. aureus IVES 2943 | E. coli J3272 Tet C | E. coli UBMS 88-1 Tet B | S. aureus IVES 1983 | E. coli PRP1 Tet A
4 µg/mL: S. aureus ROSE (MP); read-out: MIC
0.12 µg/mL: E. coli BAJ9003 IMP MUT
0.5 µg/mL: [1] | E. coli UBMS 90-4 Tet M | [5] | [7] | E. coli UBMS 90-5 | [8] | E. coli J2175 | E. coli #311 (MP) | E. coli J3272 Tet D | S. aureus NEMC 8769; read-out: MIC | E. coli ATCC 25922 | S. aureus ATCC 29213; read-out: MIC | S. aureus UBMS 88-4 | [10]
2 µg/mL: [4]; [13]
0.25 µg/mL: S. aureus UBMS 90-3 | Enterococcus 12201 | S. aureus SMITH (MP) | [2] | [3] | E. coli UBMS 89-1 Tet M | E. faecalis ATCC 29212; [14]
> 32 µg/mL: [9]; [15]
8 µg/mL: S. marcescens FPOR 8733

CN(C)[C@@H]1C(O)=C(C(N)=O)C(=O)[C@@]2(O)C(O)=C3C(=O)c4c(ccc(NC(=O)CNCc5ccccn5)c4O)CC3CC12 (stereo partly drawn) [N, [4S-(4alpha,12aalpha)]-4-(Dimethylamino)-1,4,4a,5,5a,6,11,12a-octahydro-3,10,12,12a-tetrahydroxy-1,11-dioxo-9-[[[(2-pyridinylmethyl]amino]acetyl]amino]-2-naphthacenecarboxamide dihydrochloride]
16 µg/mL: E. coli UBMS 90-4 Tet M | E. coli UBMS 89-1 Tet M
32 µg/mL: [5] | [6] | E. coli UBMS 90-5 | E. coli #311 (MP) | E. coli J3272 Tet D | E. coli ATCC 25922 | E. coli PRP1 Tet A
4 µg/mL: S. aureus UBMS 90-3; S. aureus UBMS 90-3, read-out: MIC | S. aureus SMITH (MP); [12] | E. faecalis ATCC 29212; [14]
8 µg/mL: Enterococcus 12201 | [1] | [2] | [3] | [7] | S. aureus NEMC 8769 | S. aureus ATCC 29213 | S. aureus UBMS 88-4
2 µg/mL: E. coli BAJ9003 IMP MUT
> 32 µg/mL: S. aureus ROSE (MP) | [4] | [8] | S. aureus IVES 2943 | E. coli J2175 | S. marcescens FPOR 8733 | E. coli J3272 Tet C | E. coli UBMS 88-1 Tet B | S. aureus IVES 1983 | [9] | [10]

CC(C(=O)Nc1ccc2c(c1O)C(=O)C1=C(O)[C@]3(O)C(=O)C(C(N)=O)=C(O)[C@@H](N(C)C)C3CC1C2)N1CCCC1 (stereo partly shown) [P]
8 µg/mL: S. aureus ROSE (MP); read-out: MIC
4 µg/mL: [4] | [10]
0.5 µg/mL: [1] | S. aureus SMITH (MP) | [2] | [7] | E. coli UBMS 90-5 | E. coli UBMS 89-1 Tet M | E. coli J3272 Tet D | S. aureus NEMC 8769 | S. aureus ATCC 29213 | S. aureus UBMS 88-4
> 32 µg/mL: [9]; [15]
16 µg/mL: S. marcescens FPOR 8733
2 µg/mL: [6] | S. aureus IVES 2943; S. aureus IVES 2943, read-out: MIC | E. coli UBMS 88-1 Tet B | E. coli PRP1 Tet A
0.25 µg/mL: S. aureus UBMS 90-3 | Enterococcus 12201; [11] | [3] | E. faecalis ATCC 29212; [14] | E. coli BAJ9003 IMP MUT
1 µg/mL: E. coli UBMS 90-4 Tet M | [5] | [8] | E. coli J2175 | E. coli #311 (MP) | E. coli J3272 Tet C | E. coli ATCC 25922 | S. aureus IVES 1983
